Results on one substance are retold here after patent publication US20220339187A1, “ANTIMICROBIAL PEPTIDE-SELENIUM NANOPARTICLES” (The University of Melbourne, priority 2019, published 2022).

The test system of data set [1] is all tested bacterial strains (S. aureus, E. faecalis, E. coli, A. baumannii, P. aeruginosa, K. pneumoniae). Nature of the data set: Membrane disruption test (PI-positive cells). The data set is classed as cell-based. Conditions: 6.25 or 12.5 μg/ml, 90 min. As to the method:
The bacterial strains methicillin-sensitive S. aureus ATCC 29213, E. faecalis ATCC 29212, E. coli ATCC 25922, A. baumannii 2208 ATCC19606, P. aeruginosa strain PAO1-LAC ATCC 47085 and K. pneumoniae ATCC 13883 were cultured in MHB at 37° C. 50 μL of different concentrations of Se NPs, Se NP-ε-PL or pure ε-PL in PBS solution was added into each well of 96-well microplates. 50 μL MHB with 2.5×10^6 cells/mL bacteria was then added into each well. 50 μL MHB with 2.5×10^6 cells/mL bacteria was added to 50 μL PBS to act as untreated control. After 90 min incubation at 37° C., 0.1% of a green-fluorescent nucleic acid stain (SYTO 9, Thermo Fisher Scientific) and 0.1% of propidium iodide (PI) were added to each well and incubated again for 5 min. SYTO 9 can stain both live and dead Gram-positive and Gram-negative bacteria. PI is a red-florescent nuclear and chromosome counterstain but is not permeant to cells with intact plasma membranes. A Cell Lab Quanta SC MPL flow cytometer (Beckman Coulter) was adopted to measure the percent of PI-positive cells. Two independent tests were performed, and two parallel samples were used in each test for each variation.

The subject of data set [2] is human dermal fibroblast cells (HDF). Nature of the data set: Lactate Dehydrogenase (LDH) release assay. It counts as cell-based. Conditions: concentration of up to 50 μg/mL, 6 h. The protocol: LDH is released from cells into the medium when cell lysis occurs. The amount of LDH released to the medium was measured using the Cyto Tox 96® nonradioactive assay (Promega, Madison, Wis., USA) following the manufacturer's instructions. The HDF cells were cultured in a 96-well microplate for 24 h, before the old medium was replaced with DMEM with including either Se NPs, Se NP-ε-PL or pure ε-PL. Pure DMEM was used as negative control. The microplate was put back into the incubator for 6 h. For the maximum LDH release control, HDF cells were lysed using 1× lysis solution for 45 minutes before adding Cyto Tox 96 reagent. Cyto Tox 96 reagent was then added to the wells and the microplate was incubated for a further 30 minutes. The reaction was then stopped by adding stop solution. A microplate reader (M200 PRO, Tecan) was utilized to test absorbance at 490 nm. The cytotoxicity (Y) was calculated using the following formula: […]
OD3 represents the mean absorbance of experimental groups, and OD4 represents the mean absorbance of the maximum LDH release control group. All absorbance values are after subtraction of the culture medium background values.

The subject of data set [3] is multidrug-resistant K. pneumoniae (MDR). Nature of the data set: Bacterial growth inhibition test / MIC calculation. It counts as cell-based, Klebsiella pneumoniae. Conditions: MHB, 37° C., growth curves, linear regression, mean ± s.d. From the text:
The bacterial strains methicillin-sensitive Staphylococcus aureus (S. aureus) ATCC 29213, methicillin-resistant Staphylococcus aureus (MRSA) ATCC 43300, Enterococcus faecalis (E. faecalis) ATCC 29212, Escherichia coli (E. coli) ATCC 25922, Acinetobacter baumannii (A. baumannii) 2208 ATCC19606, Pseudomonas aeruginosa (P. aeruginosa) strain PAO1-LAC ATCC 47085, Klebsiella pneumoniae (K. pneumoniae) ATCC 13883 and multidrug-resistant K. pneumoniae (MDR), were obtained from the culture collection of the Oral Health Cooperative Research Centre, The Melbourne Dental School, University of Melbourne, Australia. Bacteria were cultured in Mueller Hinton Broth (MHB) at 37° C. […] The plate was put into an iEMS microplate reader (Pathtech Pty Ltd, Melbourne, Australia) at a temperature of 37° C. to monitor bacterial growth by measuring the absorbance at wavelength of 630 nm for 24 h. Background absorbance values due to the Se NP solutions were subtracted from the measured absorbance values.
The absorbance values from bacteria growth curves at the time when the stationary phase starts (tsps) were taken and calculated as a percentage of the untreated control (Z=OD5/OD6×100%, where OD5 represents absorbance at tsps of experimental groups and OD6 represents the absorbance at tsps of the negative control group; all absorbance values had the culture medium background values subtracted). […]

Data set [4] concerns methicillin-sensitive S. aureus (MSSA) ATCC 29213. Nature of the data set: ROS production test (CellROX Orange, flow cytometry). It counts as cell-based, Staphylococcus aureus. The conditions noted are these: 6.25 or 12.5 μg/ml. The protocol:
(§1) The bacterial strains methicillin-sensitive S. aureus (MSSA) ATCC 29213, E. faecalis ATCC 29212, E. coli ATCC 25922 were cultured in MHB at 37° C. 50 μL of different concentration of Se NPs, Se NP-ε-PL or pure ε-PL in PBS solution was added into each well of a 96-well microplate. 50 μL MHB with 2.5×10^6 cells/mL bacteria was then added into each well. After 90 min incubation at 37° C., CellROX® Orange Reagent was added into each well at a final concentration of 750 nM. The cells were incubated for a further 1 h. The fluorescence from the CellROX Orange Reagent was measured on FL-3 (red fluorescence channel) using the Cell Lab Quanta SC MPL flow cytometer (Beckman Coulter). Two independent experiments were done for this test, and two technical replicates were adopted for each independent experiment.
On the technique in general: In flow cytometry, cells or beads pass a laser one at a time.

Data set [5] shares this test system. Nature of the data set: Membrane potential change test (BacLight, DiOC2(3)). The data set is classed as cell-based, Staphylococcus aureus. The conditions noted are these: 6.25 or 12.5 μg/ml. The protocol: Membrane potential change was measured using a BacLight Bacterial Membrane Potential Kit (Invitrogen). The bacterial strain methicillin-sensitive S. aureus (MSSA) ATCC 29213, E. faecalis ATCC 29212, E. coli ATCC 25922 were cultured in MHB at 37° C. 50 μL of different concentrations of Se NPs, Se NP-ε-PL or pure ε-PL in PBS solution was added into each well of 96-well microplates. 50 μL MHB with 2.5×10^6 cells/mL bacteria was then added into each well. 50 μL MHB with 2.5×10^6 cells/mL bacteria was added to 50 μL PBS to act as untreated control. Carbonyl cyanide 3-chlorophenylhydrazone (CCCP) was added to untreated control at a final concentration of 5 μM to act as fully depolarized control. 3,3′-Diethyloxacarbocyanine Iodide (DiOC2(3)) was added to all wells at a final concentration of […]. […] The untreated (polarized) and CCCP-treated (fully depolarized) controls were used to determine the percentage of depolarized cells. Two independent experiments were done for this test, and two technical replicates were adopted for each independent experiment.

The test system of data set [6] is E. faecalis ATCC 29212. Nature of the data set: ROS production test (CellROX Orange, flow cytometry). It counts as cell-based, Enterococcus faecalis. The conditions noted are these: 6.25 or 12.5 μg/ml. The protocol:
as §1

Turning to ε-poly-L-lysine [ε-PL], the “cell membrane disruption (PI positive cells)” value in data set [1] is recorded as “membrane disruption effects”. Besides, the “LDH released from HDF cells compared with untreated control” value in data set [2] was “no significant difference to the untreated control”. The minimal inhibitory concentration (MIC) (in general, the lowest concentration found to suppress growth) in data set [3] is 26.5 ± 0.5 µg/mL. The “ROS production (high ROS production cells)” value in data set [4] is listed as “slight promotion of ROS production”; in data set [6], “almost no promoting effects on ROS production”. The “depolarisation of cell membrane” value in data set [5] was “depolarized cell membranes”.
